Test results: PubChem BioAssay (NCI)
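How tested: cells in 96-well plates exposed to compound for 48 hours at five concentrations. TGI marks complete inhibition of growth.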

What was measured:
Assay in all cases: inhibition of tumour cell growth, NCI panel, 48 h
SR leukemia = system: SR leukemia
UACC-257 melanoma = system: UACC-257 melanoma
MDA-MB-231 breast = system: MDA-MB-231 breast
SF-295 CNS = system: SF-295 CNS
DU-145 prostate = system: DU-145 prostate
NCI/ADR-RES ovarian = system: NCI/ADR-RES ovarian
LOX IMVI melanoma = system: LOX IMVI melanoma
HOP-92 NSCLC = system: HOP-92 NSCLC
NCI-H460 lung = system: NCI-H460 lung
MOLT-4 leukemia = system: MOLT-4 leukemia
RPMI-8226 leukemia = system: RPMI-8226 leukemia
M14 melanoma = system: M14 melanoma
SK-MEL-28 melanoma = system: SK-MEL-28 melanoma
PC-3 prostate = system: PC-3 prostate
UACC-62 melanoma = system: UACC-62 melanoma
SW-620 colon = system: SW-620 colon
ACHN renal = system: ACHN renal
NCI-H23 lung = system: NCI-H23 lung
MDA-N = system: MDA-N
HCC-2998 colon = system: HCC-2998 colon
NCI-H226 lung = system: NCI-H226 lung
SK-MEL-2 melanoma = system: SK-MEL-2 melanoma
IGROV1 ovarian = system: IGROV1 ovarian
MDA-MB-435 = system: MDA-MB-435
MCF7 breast = system: MCF7 breast
UO-31 renal = system: UO-31 renal
SK-OV-3 ovarian = system: SK-OV-3 ovarian
HS 578T breast = system: HS 578T breast
SN12C renal = system: SN12C renal
SF-539 CNS = system: SF-539 CNS
SNB-75 CNS = system: SNB-75 CNS
MALME-3M melanoma = system: MALME-3M melanoma
HCT-15 colon = system: HCT-15 colon
OVCAR-8 ovarian = system: OVCAR-8 ovarian
SF-268 CNS = system: SF-268 CNS
HL-60(TB) leukemia = system: HL-60(TB) leukemia
A549 NSCLC = system: A549 NSCLC
TK-10 renal = system: TK-10 renal
CAKI-1 renal = system: CAKI-1 renal
SNB-19 CNS = system: SNB-19 CNS
HOP-62 NSCLC = system: HOP-62 NSCLC
RXF 393 renal = system: RXF 393 renal
SK-MEL-5 melanoma = system: SK-MEL-5 melanoma
NCI-H522 lung = system: NCI-H522 lung
786-0 renal = system: 786-0 renal
T-47D breast = system: T-47D breast
CCRF-CEM leukemia = system: CCRF-CEM leukemia
HCT-116 colon = system: HCT-116 colon
OVCAR-4 ovarian = system: OVCAR-4 ovarian
KM12 colon = system: KM12 colon
U251 CNS = system: U251 CNS
HT29 colon = system: HT29 colon
A498 renal = system: A498 renal
OVCAR-5 ovarian = system: OVCAR-5 ovarian

CCN(CCCl)c1ccc(NC(=O)c2cc(C(=O)NCCN(C)C)cc(C(=O)Nc3ccc(N(CC)CCCl)cc3)c2)cc1
TGI (SR leukemia): > 100 µM | TGI (UACC-257 melanoma): 65.6 µM | TGI (MDA-MB-231 breast): 34.9 µM | TGI (SF-295 CNS): 72.3 µM | TGI (DU-145 prostate): 39.2 µM | TGI (NCI/ADR-RES ovarian): > 100 µM | TGI (LOX IMVI melanoma): 12.8 µM | TGI (HOP-92 NSCLC): 29.8 µM | TGI (NCI-H460 lung): 28 µM | TGI (MOLT-4 leukemia): 5.99 µM | TGI (RPMI-8226 leukemia): 23.6 µM | TGI (M14 melanoma): 28.2 µM | TGI (SK-MEL-28 melanoma): 41.4 µM | TGI (PC-3 prostate): 16.3 µM | TGI (UACC-62 melanoma): 27.5 µM | TGI (SW-620 colon): 18 µM | TGI (ACHN renal): 21.3 µM | TGI (NCI-H23 lung): 23.5 µM | TGI (MDA-N): 29.6 µM | TGI (HCC-2998 colon): 35 µM | TGI (NCI-H226 lung): 25.1 µM | TGI (SK-MEL-2 melanoma): 44.1 µM | TGI (IGROV1 ovarian): 29.1 µM | TGI (MDA-MB-435): 33.9 µM | TGI (MCF7 breast): 19.6 µM | TGI (UO-31 renal): > 100 µM | TGI (SK-OV-3 ovarian): 19.5 µM | TGI (HS 578T breast): 12.4 µM | TGI (SN12C renal): 21 µM | TGI (SF-539 CNS): 12.3 µM | TGI (SNB-75 CNS): 69.6 µM | TGI (MALME-3M melanoma): 34.5 µM | TGI (HCT-15 colon): > 100 µM | TGI (OVCAR-8 ovarian): 25.2 µM | TGI (SF-268 CNS): 61.2 µM | TGI (HL-60(TB) leukemia): 3.19 µM | TGI (A549 NSCLC): 25.7 µM | TGI (TK-10 renal): 38 µM | TGI (CAKI-1 renal): > 100 µM | TGI (SNB-19 CNS): 19.9 µM | TGI (HOP-62 NSCLC): 16.4 µM | TGI (RXF 393 renal): 30.8 µM | TGI (SK-MEL-5 melanoma): 30.7 µM | TGI (NCI-H522 lung): 11.4 µM | TGI (786-0 renal): 3.12 µM | TGI (T-47D breast): 53.9 µM | TGI (CCRF-CEM leukemia): 3.27 µM | TGI (HCT-116 colon): 22.3 µM | TGI (OVCAR-4 ovarian): 43.5 µM | TGI (KM12 colon): 25.4 µM | TGI (U251 CNS): 22.1 µM | TGI (HT29 colon): 11.8 µM | TGI (A498 renal): 43.1 µM | TGI (OVCAR-5 ovarian): 87.1 µM
